# Data from patent US9682955B2, “Quinazoline derivatives useful as CB-1 inverse agonists” (Janssen Pharmaceutica NV, priority 2014, dated 2017).
# Tests used:
# [1] = target: Human CB1R (Cannabanoid receptor 1) (Homo sapiens (Human), UniProt P21554); assay: CB-1 in vitro cAMP assay (HTRF); type: cell-based; conditions: mean where tested more than once
# Outline: (§1)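 HEK-293 cells stably transfected with the human receptor, plated overnight at 4E5 cells/mL. Compounds given as 1/3 serial dilutions from 10 mM DMSO stocks. Stimulation in HBSS/5 mM HEPES/0.1% BSA with 0.5 mM IBMX and forskolin (1.5 μM in buffer); cAMP measured by competitive HTRF immunoassay (d2-cAMP, cryptate anti-cAMP) against a cAMP standard curve.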
# [2] = target: Human CB2R (Cannabanoid receptor 2) (Homo sapiens (Human), UniProt P34972); assay: CB-2 in vitro cAMP assay (HTRF); type: cell-based; conditions: mean where tested more than once
# Sequence of Human CB2R (Cannabanoid receptor 2) (P34972 whole entry): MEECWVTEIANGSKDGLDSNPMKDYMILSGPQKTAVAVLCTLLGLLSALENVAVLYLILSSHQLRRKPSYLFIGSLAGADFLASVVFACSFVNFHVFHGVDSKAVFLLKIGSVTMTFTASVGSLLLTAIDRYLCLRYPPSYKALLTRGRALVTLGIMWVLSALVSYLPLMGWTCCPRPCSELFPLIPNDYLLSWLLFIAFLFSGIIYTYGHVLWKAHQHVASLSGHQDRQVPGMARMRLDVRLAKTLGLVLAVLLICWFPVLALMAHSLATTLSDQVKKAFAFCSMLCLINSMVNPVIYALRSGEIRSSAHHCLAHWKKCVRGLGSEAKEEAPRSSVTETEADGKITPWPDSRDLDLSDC
# Outline: as §1
# Sequence of Human CB1R (Cannabanoid receptor 1) (P21554 whole entry): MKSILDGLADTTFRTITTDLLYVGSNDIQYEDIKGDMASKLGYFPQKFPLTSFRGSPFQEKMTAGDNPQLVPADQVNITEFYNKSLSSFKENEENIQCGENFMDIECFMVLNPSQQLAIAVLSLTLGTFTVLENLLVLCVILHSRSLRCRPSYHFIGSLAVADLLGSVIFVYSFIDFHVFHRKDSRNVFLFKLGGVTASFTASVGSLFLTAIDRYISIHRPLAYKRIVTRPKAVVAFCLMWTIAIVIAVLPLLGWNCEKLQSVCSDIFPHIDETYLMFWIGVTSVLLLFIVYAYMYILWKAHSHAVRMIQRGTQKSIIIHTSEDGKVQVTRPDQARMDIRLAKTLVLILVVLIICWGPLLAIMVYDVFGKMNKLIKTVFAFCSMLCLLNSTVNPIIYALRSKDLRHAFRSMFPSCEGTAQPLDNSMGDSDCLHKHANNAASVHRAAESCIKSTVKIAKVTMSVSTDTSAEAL
Structure (SMILES),EC50 [1] [nM],EC50 [2] [nM]
"O=C(O)COc1nc(NCc2cccc(C(F)(F)F)c2)c2cc(C(c3ccc(Cl)cc3)c3ccc(Cl)cc3)ccc2n1 [compound 51, 2-((6-(bis(4-chlorophenyl)methyl)-4-((3-(trifluoromethyl)benzyl)amino)quinazolin-2-yl)oxy)acetic acid]",583,3340
"NC(=O)c1ccc(CNc2ncnc3ccc(C(c4ccc(Cl)cc4)c4ccc(Cl)cc4)cc23)cc1 [compound 56, 4-((6-(bis(4-chlorophenyl)methyl)quinazolin-4-ylamino)methyl)benzamide]",446,9100
"O=C(O)c1ccc(CNc2ncnc3ccc(C(c4ccc(Cl)cc4)c4ccc(Cl)cc4)cc23)cc1 [compound 60, 4-((6-(bis(4-chlorophenyl)methyl)quinazolin-4-ylamino)methyl)benzoic acid]",5300,> 10000
"COC(=O)c1ccc(CNc2ncnc3ccc(C(c4ccc(Cl)cc4)c4ccc(Cl)cc4)cc23)cc1 [compound 61, methyl 4-((6-(bis(4-chlorophenyl)methyl)quinazolin-4-ylamino)methyl)benzoate]",20,> 10000
"Fc1cccc(CNc2ncnc3ccc(C(c4ccc(Cl)cc4)c4ccc(Cl)cc4)cc23)c1 [compound 63, 6-(bis(4-chlorophenyl)methyl)-N-(3-fluorobenzyl)quinazolin-4-amine]",10,1200
"O=C(CC(=O)N1CCC(Nc2ncnc3ccc(C(c4ccc(Cl)cc4)c4ccc(Cl)cc4)cc23)CC1)NCCO [compound 82, 3-(4-(6-(bis(4-chlorophenyl)methyl)quinazolin-4-ylamino)piperidin-1-yl)-N-(2-hydroxyethyl)-3-oxopropanamide]",5750,> 10000
"O=C(NCCO)c1cccc(N2CCC(Nc3ncnc4ccc(C(c5ccc(Cl)cc5)c5ccc(Cl)cc5)cc34)CC2)c1 [compound 83, 3-(4-(6-(bis(4-chlorophenyl)methyl)quinazolin-4-ylamino)piperidin-1-yl)-N-(2-hydroxyethyl)benzamide]",85,3500
"NC(=O)CC(=O)N1CCC(Nc2ncnc3ccc(C(c4ccc(Cl)cc4)c4ccc(Cl)cc4)cc23)CC1 [compound 87, 3-(4-(6-(bis(4-chlorophenyl)methyl)quinazolin-4-ylamino)piperidin-1-yl)-3-oxopropanamide]",2920,> 10000
"O=C(O)CC(=O)N1CCC(Nc2ncnc3ccc(C(c4ccc(Cl)cc4)c4ccc(Cl)cc4)cc23)CC1 [compound 88, 3-(4-(6-(bis(4-chlorophenyl)methyl)quinazolin-4-ylamino)piperidin-1-yl)-3-oxopropanoic acid]",799,> 10000
"CCOC(=O)CC(=O)N1CCC(Nc2ncnc3ccc(C(c4ccc(Cl)cc4)c4ccc(Cl)cc4)cc23)CC1 [compound 89, ethyl 3-(4-(6-(bis(4-chlorophenyl)methyl)quinazolin-4-ylamino)piperidin-1-yl)-3-oxopropanoate]",25,1800
"O=C(O)c1cccc(N2CCC(Nc3ncnc4ccc(C(c5ccc(Cl)cc5)c5ccc(Cl)cc5)cc34)CC2)c1 [compound 95, 3-(4-(6-(bis(4-chlorophenyl)methyl)quinazolin-4-ylamino)piperidin-1-yl)benzoic acid]",818,3160
"NC(=O)c1cccc(N2CCC(Nc3ncnc4ccc(C(c5ccc(Cl)cc5)c5ccc(Cl)cc5)cc34)CC2)c1 [compound 96, 3-(4-(6-(bis(4-chlorophenyl)methyl)quinazolin-4-ylamino)piperidin-1-yl)benzamide]",23,218
"COC(=O)c1cccc(N2CCC(Nc3ncnc4ccc(C(c5ccc(Cl)cc5)c5ccc(Cl)cc5)cc34)CC2)c1 [compound 97, methyl 3-(4-(6-(bis(4-chlorophenyl)methyl)quinazolin-4-ylamino)piperidin-1-yl)benzoate]",83,> 10000
"O=C(O)c1cccc(S(=O)(=O)N2CCC(Nc3ncnc4ccc(C(c5ccc(Cl)cc5)c5ccc(Cl)cc5)cc34)CC2)c1 [compound 101, 3-(4-(6-(bis(4-chlorophenyl)methyl)quinazolin-4-ylamino)piperidin-1-ylsulfonyl)benzoic acid]",106,3880
"O=S(=O)(c1ccccc1)N1CCC(Nc2ncnc3ccc(C(c4ccc(Cl)cc4)c4ccc(Cl)cc4)cc23)CC1 [compound 109, 6-(bis(4-chlorophenyl)methyl)-N-(1-(phenylsulfonyl)piperidin-4-yl)quinazolin-4-amine]",4,> 10000
"O=S(=O)(c1ccccn1)N1CCC(Nc2ncnc3ccc(C(c4ccc(Cl)cc4)c4ccc(Cl)cc4)cc23)CC1 [compound 111, 6-(bis(4-chlorophenyl)methyl)-N-(1-(pyridin-2-ylsulfonyl)piperidin-4-yl)quinazolin-4-amine]",15,2740
"CC(Nc1ncnc2ccc(C(c3ccc(Cl)cc3)c3ccc(Cl)cc3)cc12)c1ccc(C(F)(F)F)cc1 (stereo not drawn) [compound 116, 6-(bis(4-chlorophenyl)methyl)-N-(1-(4-(trifluoromethyl)phenyl)ethyl)quinazolin-4-amine]",8,2500
"O=C(c1ccccc1)N1CCC(Nc2ncnc3ccc(C(c4ccc(Cl)cc4)c4ccc(Cl)cc4)cc23)CC1 [compound 119, (4-(6-(bis(4-chlorophenyl)methyl)quinazolin-4-ylamino)piperidin-1-yl)(phenyl)methanone]",5,910
"O=S(=O)(c1ccc(F)cc1)N1CCC(Nc2ncnc3ccc(C(c4ccc(Cl)cc4)c4ccc(Cl)cc4)cc23)CC1 [compound 121, 6-(bis(4-chlorophenyl)methyl)-N-(1-(4-fluorophenylsulfonyl)piperidin-4-yl)quinazolin-4-amine]",3,2140
"O=S(=O)(c1ccccc1F)N1CCC(Nc2ncnc3ccc(C(c4ccc(Cl)cc4)c4ccc(Cl)cc4)cc23)CC1 [compound 124, 6-(bis(4-chlorophenyl)methyl)-N-(1-(2-fluorophenylsulfonyl)piperidin-4-yl)quinazolin-4-amine]",2,1930
"FC(F)(F)c1ccc(C2(Nc3ncnc4ccc(C(c5ccc(Cl)cc5)c5ccc(Cl)cc5)cc34)CC2)cc1 [compound 125, 6-(bis(4-chlorophenyl)methyl)-N-(1-(4-(trifluoromethyl)phenyl)cyclopropyl) quinazolin-4-amine]",44,5940
"FC(F)(F)c1cncc(CNc2ncnc3ccc(C(c4ccc(Cl)cc4)c4ccc(Cl)cc4)cc23)c1 [compound 126, 6-(bis(4-chlorophenyl)methyl)-N-((5-(trifluoromethyl)pyridin-3-yl)methyl)quinazolin-4-amine]",25,1180
"FC(F)(F)c1ccc(CNc2ncnc3ccc(C(c4ccc(Cl)cc4)c4ccc(Cl)cc4)cc23)nc1 [compound 127, 6-(bis(4-chlorophenyl)methyl)-N-((5-(trifluoromethyl)pyridin-2-yl)methyl)quinazolin-4-amine]",30,1720
"CC(Nc1ncnc2ccc(C(c3ccc(Cl)cc3)c3ccc(Cl)cc3)cc12)c1cccc(C(F)(F)F)c1 (stereo not drawn) [compound 128, 6-(bis(4-chlorophenyl)methyl)-N-(1-(3-(trifluoromethyl)phenyl)ethyl)quinazolin-4-amine]",9,10400
